Data taken from the supplement of paper PMC13380429.

Legend:
[1] = system: A549-ACE2 infected with SARS-CoV-2; experiment: cell count relative to DMSO; higher = less toxic; conditions: 0.3 µM; 24 h
Caco-2 [2] = experiment: cell viability relative to DMSO; higher = less toxic; conditions: 72 h
Calu-3 [3] = experiment: as above; conditions: 72 h
HepG2 [4] = experiment: as above; conditions: 72 h
U2OS [5] = experiment: as above; conditions: 72 h
Vero E6 [6] = experiment: as above; conditions: 72 h
[7] = system: A549-ACE2 infected with SARS-CoV-2; experiment: SARS-CoV-2 infection rate relative to DMSO; higher = more infection; conditions: 0.3 µM; 24 h
A549-ACE2 = experiment: drug-induced phospholipidosis relative to tamoxifen; higher = more phospholipidosis; conditions: 0.3 µM
[8] = system: A549-ACE2 infected with SARS-CoV-2; experiment: morphology score (similarity to uninfected cells); higher = more like uninfected cells; conditions: 0.3 µM; 24 h
Caco-2 [9] = experiment: relative viability EC50 (midpoint between 100% and the lowest measured viability); higher = less toxic; conditions: 72 h
Calu-3 [10] = experiment: as above; conditions: 72 h
HepG2 [11] = experiment: as above; conditions: 72 h
U2OS [12] = experiment: as above; conditions: 72 h
Vero E6 [13] = experiment: as above; conditions: 72 h
Caco-2 [14] = experiment: drug sensitivity score (DSS) for viability; higher = more toxic; extreme values may be limits of the assay; conditions: 72 h
Calu-3 [15] = experiment: as above; conditions: 72 h
HepG2 [16] = experiment: as above; conditions: 72 h
U2OS [17] = experiment: as above; conditions: 72 h
Vero E6 [18] = experiment: as above; conditions: 72 h

COc1cc(NC(C)CCCN)c2ncccc2c1 (stereo unspecified) [primaquine]
Conditions	SARS-CoV-2 infection rate [%]	cell count [%]	drug sensitivity score	morphology score	relative viability EC50 [µM]
Caco-2 [9]	–	–	–	–	2.25
Caco-2 [14]	–	–	4	–	–
Calu-3 [10]	–	–	–	–	> 10
Calu-3 [15]	–	–	0.8	–	–
HepG2 [11]	–	–	–	–	> 10
HepG2 [16]	–	–	0.3	–	–
U2OS [12]	–	–	–	–	> 10
U2OS [17]	–	–	0	–	–
Vero E6 [13]	–	–	–	–	> 10
Vero E6 [18]	–	–	0	–	–
[1]	–	102	–	–	–
[7]	97	–	–	–	–
[8]	–	–	–	-0.01	–

Conditions	cell viability, 1 nM [%]	cell viability, 10 nM [%]	cell viability, 100 nM [%]	cell viability, 1000 nM [%]	cell viability, 10000 nM [%]	drug-induced phospholipidosis, 24 h [%]	drug-induced phospholipidosis, 48 h [%]	drug-induced phospholipidosis, 72 h [%]
A549-ACE2	–	–	–	–	–	2.39	2.15	2.76
Caco-2 [2]	103	108	91.8	93.9	45.2	–	–	–
Calu-3 [3]	104	90.7	106	100	76.9	–	–	–
HepG2 [4]	122	107	108	110	80.3	–	–	–
U2OS [5]	103	102	102	101	88.9	–	–	–
Vero E6 [6]	108	105	99.7	102	89.9	–	–	–

COc1ccc(-c2cc(=O)c3c(OC)c(OC)c(OC)c(OC)c3o2)cc1 [tangeritin]
cell viability [%]
Conditions	Caco-2 [2]	Calu-3 [3]	HepG2 [4]	U2OS [5]	Vero E6 [6]
1 nM	95.1	106	94.2	98.5	91.8
10 nM	89.6	99.6	101	94.3	98.7
100 nM	99	103	95.2	98.9	92.4
1000 nM	103	100	107	97.4	98
10000 nM	91.7	92.3	105	89.8	97

Conditions	drug sensitivity score	relative viability EC50 [µM]
Caco-2 [9]	–	> 10
Caco-2 [14]	0	–
Calu-3 [10]	–	> 10
Calu-3 [15]	0	–
HepG2 [11]	–	> 10
HepG2 [16]	0	–
U2OS [12]	–	> 10
U2OS [17]	0	–
Vero E6 [13]	–	> 10
Vero E6 [18]	0	–

CCN(CC)C(=O)N[C@H]1C[C@@H]2c3cccc4[nH]cc(c34)C[C@H]2N(C)C1 [terguride]
cell viability [%]
Conditions	Caco-2 [2]	Calu-3 [3]	HepG2 [4]	U2OS [5]	Vero E6 [6]
1 nM	88.6	106	104	96.4	105
10 nM	93.3	97.4	105	95.3	106
100 nM	108	95.2	95.9	94.5	104
1000 nM	97.2	105	92.9	99.1	99.8
10000 nM	99.5	115	102	94.7	97

Conditions	drug sensitivity score	relative viability EC50 [µM]
Caco-2 [9]	–	> 10
Caco-2 [14]	0	–
Calu-3 [10]	–	> 10
Calu-3 [15]	0	–
HepG2 [11]	–	> 10
HepG2 [16]	0	–
U2OS [12]	–	> 10
U2OS [17]	0	–
Vero E6 [13]	–	> 10
Vero E6 [18]	0	–

Cc1ccsc1C(=CCCN1CCC[C@@H](C(=O)O)C1)c1sccc1C [tiagabine]
cell viability [%]
Conditions	Caco-2 [2]	Calu-3 [3]	HepG2 [4]	U2OS [5]	Vero E6 [6]
1 nM	93.5	117	96	101	98.2
10 nM	97.9	103	103	94.2	100
100 nM	102	99.8	97.3	101	92.4
1000 nM	92.3	98.1	103	98	104
10000 nM	106	100	98.6	94.2	106

Conditions	drug sensitivity score	relative viability EC50 [µM]
Caco-2 [9]	–	> 10
Caco-2 [14]	0	–
Calu-3 [10]	–	> 10
Calu-3 [15]	0	–
HepG2 [11]	–	> 10
HepG2 [16]	0	–
U2OS [12]	–	> 10
U2OS [17]	0	–
Vero E6 [13]	–	> 10
Vero E6 [18]	0	–

CCS(=O)(=O)CCn1c([N+](=O)[O-])cnc1C [tinidazole]
cell viability [%]
Conditions	Caco-2 [2]	Calu-3 [3]	HepG2 [4]	U2OS [5]	Vero E6 [6]
1 nM	104	95.2	94.1	96.3	100
10 nM	77.8	96.6	109	94.8	102
100 nM	99	98.4	85.5	97.1	91.7
1000 nM	108	98.2	118	92	97.6
10000 nM	93.1	99.9	86.8	98.3	106

Conditions	drug sensitivity score	relative viability EC50 [µM]
Caco-2 [9]	–	> 10
Caco-2 [14]	0	–
Calu-3 [10]	–	> 10
Calu-3 [15]	0	–
HepG2 [11]	–	> 10
HepG2 [16]	0	–
U2OS [12]	–	> 10
U2OS [17]	0	–
Vero E6 [13]	–	> 10
Vero E6 [18]	0	–

COc1ccc(N2CCOCC2)c2sc(NC(=O)N3CCC(C)(O)CC3)nc12 [tozadenant]
cell viability [%]
Conditions	Caco-2 [2]	Calu-3 [3]	HepG2 [4]	U2OS [5]	Vero E6 [6]
1 nM	90.8	87.7	85.8	103	94.5
10 nM	95.5	94.1	99.4	95.7	106
100 nM	110	87.3	109	102	90.6
1000 nM	96.1	101	99.7	98.9	94.3
10000 nM	98	97.4	98.2	103	101

Conditions	drug sensitivity score	relative viability EC50 [µM]
Caco-2 [9]	–	> 10
Caco-2 [14]	0	–
Calu-3 [10]	–	> 10
Calu-3 [15]	0	–
HepG2 [11]	–	> 10
HepG2 [16]	0	–
U2OS [12]	–	> 10
U2OS [17]	0	–
Vero E6 [13]	–	> 10
Vero E6 [18]	0	–

O=C(O)/C=C/CO [trans-4-hydroxycrotonic-acid]
cell viability [%]
Conditions	Caco-2 [2]	Calu-3 [3]	HepG2 [4]	U2OS [5]	Vero E6 [6]
1 nM	96.2	109	94.7	98.3	97
10 nM	93.5	95.3	92	99.7	102
100 nM	97.6	102	98	102	94.8
1000 nM	103	97.1	113	98.2	101
10000 nM	99.8	100	102	98.9	106

Conditions	drug sensitivity score	relative viability EC50 [µM]
Caco-2 [9]	–	> 10
Caco-2 [14]	0	–
Calu-3 [10]	–	> 10
Calu-3 [15]	0	–
HepG2 [11]	–	> 10
HepG2 [16]	0	–
U2OS [12]	–	> 10
U2OS [17]	0	–
Vero E6 [13]	–	> 10
Vero E6 [18]	0	–
